{"source": "patent US11365194B2", "about": "“Analgesic drug using PAC1 receptor antagonistic drug” (KAGOSHIMA UNIVERSITY, priority 2017, dated 2022)", "key": {"[1]": {"system": "mechanical allodynia induced by spinal nerve injury", "assay": "Spinal nerve ligation (SNL) model, i.t. administration on 14th day, mechanical allodynia", "type": "in vivo, mouse", "conditions": "100 pmol i.t. on 14th day after operation", "method": "(§1) Male ddY mice (6 to 12 weeks old) were used, and the threshold to a mechanical stimulus was evaluated by the vonFrey test. Specifically, the 50% withdrawal reflex threshold (Threshold) was calculated in accordance with the method of Chaplan et al. (Chaplan et al., J. Neurosci. Meth. 53, 55-63, 1994). Each compound was dissolved in 99.7% DMSO, and then the resulting solution was diluted with an artificial cerebrospinal fluid for preparation (final concentration of DMSO was 0.2%).\nSpinal nerve ligation (SNL) models in which the fourth lumbar cord spinal nerves of male ddY (6 to 12 weeks old) were ligated with silk thread were used. The i.t. administration of a solvent (VEH: 10% DMSO-containing saline), PA-8, the compound 2j or the compound 2o (FIG. 9A), or PA-9 or the compound 3d (FIG. 9B) was performed on the 14th day after the operation. The method of causing a mechanical stimulus is the same as that of Example 5, and data were acquired for 24 hours after i.t. administration over time."}, "[2]": {"molecular_target": "T1, mouse VPAC1 receptor-expressing CHO cell (VPAC1/CHO cell) (Mus musculus, UniProt P97751)", "T1 construct": "expressed in transfected cells; host or cells: CHO cells", "T1 sequence (P97751 31-459)": "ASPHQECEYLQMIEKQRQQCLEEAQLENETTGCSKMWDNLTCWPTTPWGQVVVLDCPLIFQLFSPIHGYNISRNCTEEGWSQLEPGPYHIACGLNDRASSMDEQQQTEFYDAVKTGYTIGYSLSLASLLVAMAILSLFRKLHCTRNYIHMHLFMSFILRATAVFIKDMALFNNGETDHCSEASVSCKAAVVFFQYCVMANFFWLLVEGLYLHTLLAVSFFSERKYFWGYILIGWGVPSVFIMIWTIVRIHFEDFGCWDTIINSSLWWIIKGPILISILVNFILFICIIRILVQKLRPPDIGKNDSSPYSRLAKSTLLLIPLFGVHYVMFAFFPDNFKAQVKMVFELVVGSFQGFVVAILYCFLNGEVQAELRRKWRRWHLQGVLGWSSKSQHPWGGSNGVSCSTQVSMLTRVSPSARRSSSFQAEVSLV", "assay": "CREB phosphorylation by PACAP stimulus, Western blot, VPAC1/CHO cell", "type": "cell-based", "conditions": "compound 10 μM to 10 nM", "method": "The effect of each compound on the phosphorylation of CREB (cAMP-responsive element-binding protein) produced by a PACAP stimulus was examined by Western blot analysis using an anti-phosphorylated CREB (pCREB) antibody with a mouse PAC receptor-expressing CHO cell (PAC1/CHO cell) and a mouse VPAC1 receptor-expressing CHO cell (VPAC1/CHO cell).\nSpecifically, treatment with a compound (PA-8, PA-9, compounds 2j, 20 and 3d) at 10 μM to 10 nM or a solvent therefor (VEH: 0.1% DMSO-containing phosphate buffer solution) was performed for 30 minutes, 1 nM PACAP was then added, and protein was recovered within 30 minutes after a PACAP stimulus."}, "[3]": {"system": "mechanical allodynia induced by PACAP intrathecal administration", "assay": "Mechanical allodynia induced by PACAP intrathecal administration (von Frey test)", "type": "in vivo, mouse", "conditions": "10 or 100 pmol, simultaneous i.t.; FIGS. 5A and B", "method": "When single i.t. administration of PACAP (100 pmol/5 L) to mouse was performed, mechanical stimulus sensitive phenomenon (mechanical allodynia) occurred over a long period of time (for at least three months after the administration) (Non Patent Literature 1). […] The mechanical sensitive phenomenon induced by PACAP was not suppressed in an example in which a solvent (VEH: 0.2% DMSO-containing artificial cerebrospinal fluid) was used instead of the compounds.\nas §1"}, "[4]": {"system": "pain-like behavior induced by formalin", "assay": "Pain-like behavior induced by formalin", "type": "in vivo, mouse", "conditions": "0.1 to 10 nmol i.t.", "method": "The first phase is direct action of formalin on sensory nerves (to around 10 minutes after formalin administration). In the second phase (from around 10 minutes to 60 minutes after formalin administration), hypersensitization formed in spinal dorsal horn cells during the first phase (a type of plastic phenomenon in the nervous system also called central sensitization) is a main cause, and inflammatory reaction at the site of formalin administration contributes importantly."}, "[5]": {"conditions": "Non Patent Literature 4; cited from earlier work"}, "[6]": {"system": "mechanical allodynia induced by spinal nerve injury", "assay": "Spinal nerve ligation (SNL) model, repeated intraperitoneal administration, mechanical allodynia", "type": "in vivo, mouse", "method": "as §1\nSpinal nerve ligation (SNL) models in which the fourth lumbar cord spinal nerves of male ddY (6 to 12 weeks old) were ligated with silk thread were used. A solvent (VEH: 10% DMSO-containing saline). PA-8, the compound 2j or the compound 20 was intraperitoneally administered (30 mg/kg) 5 to 10 minutes before the ligation, and once a day for 7 days thereafter. The method of causing a mechanical stimulus is the same as that of Example 5, and data from the first day after the ligation (D1) are data 1 hour after the administration of VEH or the drugs."}, "PAC1 receptor": {"molecular_target": "T2, PAC1 receptor (Homo sapiens, UniProt P41586)", "T2 sequence (P41586 21-468)": "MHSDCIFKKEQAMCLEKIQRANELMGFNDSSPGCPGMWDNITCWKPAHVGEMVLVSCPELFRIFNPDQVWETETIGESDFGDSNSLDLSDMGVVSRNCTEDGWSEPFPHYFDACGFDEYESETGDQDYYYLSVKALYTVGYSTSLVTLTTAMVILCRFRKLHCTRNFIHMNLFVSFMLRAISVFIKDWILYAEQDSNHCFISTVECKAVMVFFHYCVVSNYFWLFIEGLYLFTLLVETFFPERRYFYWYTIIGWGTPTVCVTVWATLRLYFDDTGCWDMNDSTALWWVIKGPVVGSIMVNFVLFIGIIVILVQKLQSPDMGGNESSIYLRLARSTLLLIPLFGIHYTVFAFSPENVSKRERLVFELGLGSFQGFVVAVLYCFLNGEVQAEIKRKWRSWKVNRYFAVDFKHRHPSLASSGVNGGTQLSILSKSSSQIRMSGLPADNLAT", "conditions": "Non Patent Literature 3; cited from earlier work"}, "[7]": {"system": "spontaneous pain-like behavior induced by PACAP intrathecal administration", "assay": "Spontaneous pain-like behavior induced by PACAP intrathecal administration", "type": "in vivo, mouse", "conditions": "simultaneous i.t. with PACAP (100 pmol), counted for 30 minutes", "method": "When PACAP (100 pmol/5 L) is intrathecally administered to a mouse in a single dose (single i.t. injection), spontaneous pain-like behavior in which the mouse licks or bites the rear half of the body occurs about 5 minutes after the administration (and continues for several hours) (Ohnou et al. J. Pharmacol. Sci. 130, 194-203, 2016). […] Male ddY mice (6 to 12 weeks old) were used, and the behaviors were taken on video. The number of times of spontaneous pain-like behaviors for 30 minutes after the administration was counted."}}}
{"smiles": "C=CCOc1ccc(C2CC(=O)Nc3nc(N)[nH]c(=O)c32)cc1OC", "note": "(centres unmarked) [PA-8, reference compound]", "values": [{"measurement": "anti-mechanical allodynia effect", "setting": "[1]", "value": "suppressed the onset of mechanical allodynia significantly"}, {"measurement": "suppression of CREB phosphorylation by PACAP (1 nM)", "setting": "[2]", "value": "did not suppress CREB phosphorylation by PACAP (1 nM)"}, {"measurement": "suppression of long-term mechanical allodynia induced by PACAP", "setting": "[3]", "value": "strongly suppressed"}, {"measurement": "effect on first phase reaction", "setting": "[4]", "value": "did not affect the first phase reaction"}, {"measurement": "effect on second phase reaction", "setting": "[4]", "value": "suppressed the second phase reaction significantly depending on the concentration"}, {"measurement": "analgesic effect", "setting": "[5]", "value": "have analgesic effect"}, {"measurement": "suppression of the onset of mechanical allodynia", "setting": "[6]; 30 mg/kg i.p. before ligation and once a day for 7 days", "value": "suppressed the onset of mechanical allodynia significantly"}, {"measurement": "mechanical threshold after discontinuation of administration", "setting": "[6]; 30 mg/kg i.p., discontinued on the seventh day, versus VEH group", "value": "maintained the mechanical threshold highly significantly for at least 7 days thereafter"}, {"measurement": "PAC1 receptor antagonistic action", "setting": "PAC1 receptor", "value": "have PAC1 receptor antagonistic action"}, {"measurement": "suppression of PACAP-induced spontaneous pain-like behavior", "setting": "[7]; 10 pmol", "value": "suppressed the PACAP response significantly"}, {"measurement": "suppression of PACAP-induced spontaneous pain-like behavior", "setting": "[7]; 100 pmol", "value": "suppressed the PACAP response significantly"}]}
